Experimental data: patent publication US20210386828A1, “METHODS FOR ENHANCING CANCER IMMUNOTHERAPY” (The Regents of the University of California, priority 2018, published 2021)

Columns and labels:
Myc-CaP cells [1] = experiment: qRT-PCR of MHC-I component mRNAs in Myc-CaP cells; type: cell-based, mouse; conditions: for effect of exogenous IFNγ on induction of MHC-I antigen presentation and processing genes by the platinoid: plus IFNγ
Description: (§1) Each dot represents an experiment and horizontal lines denote the median.

Myc-CaP cells [2] = experiment: Surface MHC (H-2Kq) expression by flow cytometry; type: cell-based, mouse; conditions: for surface expression of H-2Kq: agent as named; for effect on the H-2Kq response to IFNγ: platinoid plus IFNγ
Description: as §1

[3] = tested on: Myc-CaP and TRAMP-C2 cells; experiment: RNA-seq of mouse PCa cells incubated with platinoids; type: cell-based; conditions: 2 μM, Myc-CaP
Description: FIGS. 1E-1G show total RNA from Myc-CaP cells incubated with indicated agents for 24 hr was subjected to RNA-seq. Top 20 hallmark gene sets were sorted by normalized enrichment score (NES). Immune-related gene sets are in blue (IFNγ signaling in light blue).
The top 20 hallmark gene sets sorted by normalized enrichment score (NES) are shown to depict the Oxali- and Cis-induced responses determined by GSEA analysis. Immune-related gene sets are colored blue (IFNγ signaling in light blue). […] Immune-related gene sets are in blue (IFNγ signaling in light blue).
To investigate how low-dose Oxali affects the PCa transcriptome, RNA sequencing (RNA-seq) was conducted on mouse PCa cells (Myc-CaP and TRAMP-C2) incubated with 2 μM of either Oxali or Cisplatin (Cis), a platinoid that, unlike Oxali, minimally enhances the response to PD-L1 blockade or ISP ablation (Pfirschke et al., 2016; Shalapour et al., 2015).

Myc-CaP cells [4] = experiment: Immunoblot of IRF1 and phosphorylated STAT1; type: cell-based, mouse
Description: Protein loading was confirmed with tubulin antibodies.
The basis for the synergy between low-dose Oxali and IFNγ was investigated. […] Given the ability of Oxali to induce Ifngr2 mRNA expression, not only in Myc-CaP cells (FIG. 2D) but also in mouse and human melanoma cell lines (FIGS. 11C and 11D), it was postulated that the synergistic activation of IRF1 and STAT1 by Oxali plus IFNγ may be due to IFNγR2 induction.

Myc-CaP cells [5] = experiment: Nuclear abundance of transcription factors (IB, flow cytometry); type: cell-based, mouse; conditions: 2 μM Oxali
Myc-CaP cells [6] = tested on: Myc-CaP cells
Description: CRISPR-Cas9 was used to ablate cyclic GMP-AMP synthase (cGAS, encoded by Mb21d1) and Ifnar2 (FIG. 11K).

[7] = cells incubated with Oxali or Oxali+IFNγ

SMILES	effect of exogenous IFNγ on induction of MHC-I antigen presentation and processing genes by the platinoid (Myc-CaP cells [1])	surface expression of H-2Kq (Myc-CaP cells [2])	effect on the H-2Kq response to IFNγ (Myc-CaP cells [2])	induction of gene set responsive to NF-κB-dependent TNF signaling [3]	effect on IRF1 induction by IFNγ (Myc-CaP cells [4]; added to IFNγ)	STAT1 phosphorylation (Myc-CaP cells [4]; added to IFNγ-treated cells)	nuclear abundance of p65, NF-κB, CREB1, ATF3, P-ATM and JunB (Myc-CaP cells [5])	γH2AX, marker of DNA damage (Myc-CaP cells [6])	synergistic Psmb9 and Nlrc5 mRNA induction under IKKβ inhibition (Myc-CaP cells [1]; Oxali+IFNγ)	decrease in Ifngr2 mRNA (Myc-CaP cells [1]; [7]) [fold]	H-2Kq surface expression under IKKβ inhibition (Myc-CaP cells [2]; [7])
N.N.O=C([O-])C1(C(=O)[O-])CCC1.[Pt+2] [Carbo, carboplatin]	not as strong as that of Oxali+IFNγ	barely induced surface H-2Kq	potentiated the response to IFNγ	–	–	–	–	–	–	–	–
N.N.[Cl][Pt][Cl] [Cis, Cisplatin]	not as strong as that of Oxali+IFNγ	barely induced surface H-2Kq	potentiated the response to IFNγ	strongly induced	strongly potentiated	dramatically increased	more transient and weaker effect	γH2AX induction	–	–	–
COc1c(Cl)cc2c([nH]c3cnccc32)c1NC(=O)c1cccnc1C [ML120B]	–	–	–	–	–	–	–	–	attenuated	4	reduced
